Source: ChEMBL document CHEMBL3734731 (Medchemcomm, 2015)
Numbered stars: 1 amine (or outer) side, 2 acyl side, 3 side chain; on linkers, the order of the positions; unused ones are H or OH. Square brackets hold non-standard residues; d marks the D form. Peptide text beside a SMILES is read from it. * marks the point of attachment. NMeY = CN[C@@H](Cc1ccc(O)cc1)C(=O)O; NMeF = CN[C@@H](Cc1ccccc1)C(=O)O; NMeI = CC[C@H](C)[C@H](NC)C(=O)O; Aad = N[C@@H](CCCC(=O)O)C(=O)O; Methoxyoxalyl = COC(=O)C(=O)*; Oxalyl = O=C(C(=O)[*:2])[*:1]; Suc = O=C(CCC(=O)[*:2])[*:1]

Key:
Neuromedin-K receptor [1] = biological target: T1, Neuromedin-K receptor (Homo sapiens, UniProt P29371); assay: Displacement of ([125I]His3-MePhe7)-NKB from NK3 receptor (unknown origin) expressed in CHO cells by scintillation counter; format: cell-based
T1 sequence (P29371 whole entry): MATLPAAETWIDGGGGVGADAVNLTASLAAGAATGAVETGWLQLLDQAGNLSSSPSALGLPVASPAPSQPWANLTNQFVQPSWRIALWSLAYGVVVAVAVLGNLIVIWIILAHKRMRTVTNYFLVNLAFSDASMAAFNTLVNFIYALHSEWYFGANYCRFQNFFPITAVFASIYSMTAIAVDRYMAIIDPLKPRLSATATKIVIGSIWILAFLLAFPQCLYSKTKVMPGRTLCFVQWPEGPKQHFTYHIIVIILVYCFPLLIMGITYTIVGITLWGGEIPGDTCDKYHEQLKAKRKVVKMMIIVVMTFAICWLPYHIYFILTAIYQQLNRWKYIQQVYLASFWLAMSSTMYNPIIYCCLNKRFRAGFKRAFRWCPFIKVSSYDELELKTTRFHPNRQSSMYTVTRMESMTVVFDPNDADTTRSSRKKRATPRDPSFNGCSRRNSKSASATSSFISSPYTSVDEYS

Neuromedin-K receptor [2] = biological target: T1, Neuromedin-K receptor; assay: Agonist activity at human NK3 receptor expressed in CHO cells assessed as calcium influx relative to 100 nM senktide; format: functional, cell-based
Substance-P receptor = Substance-P receptor (Homo sapiens, UniProt P25103); assay: Displacement of [125I]-BH-SP from NK1 receptor (unknown origin) expressed in CHO cells by scintillation counter; format: cell-based
Substance-K receptor = biological target: T2, Substance-K receptor (Homo sapiens, UniProt P21452); assay: Displacement of [125I]-NKA from NK2 receptor (unknown origin) expressed in CHO cells by scintillation counter; format: cell-based
T2 sequence (P21452 whole entry): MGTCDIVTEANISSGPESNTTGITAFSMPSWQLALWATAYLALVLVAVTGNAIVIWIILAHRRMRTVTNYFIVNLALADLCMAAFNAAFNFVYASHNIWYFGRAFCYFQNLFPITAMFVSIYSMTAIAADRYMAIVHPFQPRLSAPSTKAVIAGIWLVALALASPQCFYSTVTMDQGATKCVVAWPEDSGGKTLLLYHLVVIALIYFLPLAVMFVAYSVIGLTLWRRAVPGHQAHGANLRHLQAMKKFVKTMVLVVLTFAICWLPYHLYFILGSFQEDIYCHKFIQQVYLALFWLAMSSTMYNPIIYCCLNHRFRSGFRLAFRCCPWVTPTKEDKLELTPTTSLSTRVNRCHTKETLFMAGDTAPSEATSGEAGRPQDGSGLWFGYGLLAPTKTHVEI

[3] = biological target: T3, Neuromedin-K receptor (Homo sapiens) (UniProt P29371); assay: Potency index, ratio of EC50 for […] to EC50 for test compound for agonist activity at human NK3 receptor
T3 sequence (whole entry): T1 sequence (P29371 whole entry)

Neuromedin-K receptor [4] = biological target: T4, Neuromedin-K receptor (Rattus norvegicus, UniProt P16177); assay: Agonist activity at rat NK3 receptor expressed in CHO cells assessed as calcium influx relative to 100 nM senktide; format: functional, cell-based
T4 sequence (P16177 whole entry): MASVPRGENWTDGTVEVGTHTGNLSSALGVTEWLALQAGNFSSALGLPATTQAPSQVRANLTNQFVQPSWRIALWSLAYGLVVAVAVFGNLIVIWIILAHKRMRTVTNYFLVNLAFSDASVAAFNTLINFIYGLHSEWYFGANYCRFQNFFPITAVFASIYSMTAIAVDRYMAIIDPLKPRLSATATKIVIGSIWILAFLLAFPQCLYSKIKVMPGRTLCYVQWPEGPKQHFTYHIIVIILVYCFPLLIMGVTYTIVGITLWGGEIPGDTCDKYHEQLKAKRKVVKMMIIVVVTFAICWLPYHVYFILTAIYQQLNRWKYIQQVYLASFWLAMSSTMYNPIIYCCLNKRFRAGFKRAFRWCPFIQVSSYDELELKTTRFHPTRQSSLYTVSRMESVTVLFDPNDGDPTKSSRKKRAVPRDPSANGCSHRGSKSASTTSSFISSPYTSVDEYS

[5] = Agonist activity at goat NK3 receptor expressed in CHO cells assessed as calcium influx relative to 100 nM senktide; format: cell-based; settings: Capra hircus
[6] = Agonist activity at cattle NK3 receptor expressed in CHO cells assessed as calcium influx relative to 100 nM senktide; format: cell-based
Neprilysin (NEP 24.11) = Neprilysin (NEP 24.11) (Homo sapiens, UniProt P08473); assay: Stability of compound assessed as NEP 24.11 (unknown origin)-mediated drug degradation after 24 hrs by HPLC analysis; format: ADME; settings: NEP 24.11 (neprilysin) enzyme
[7] = biological target: T3, Neuromedin-K receptor (Homo sapiens); assay: Potency index, ratio of IC50 for […] to IC50 for test compound for binding affinity to NK3 receptor (unknown origin)
Serum [8] = assay: Metabolic stability in rat serum by HPLC analysis; format: ADME
[9] = Metabolic stability in goat serum by HPLC analysis; format: ADME, Capra hircus
Serum [10] = assay: Metabolic stability in cattle serum by HPLC analysis; format: ADME, Bos taurus
[11] = Induction of periodic burst of multiple-unit activity volleys in OVX goat assessed as time duration of effect at 200 nmol, iv; format: functional, Capra hircus
[12] = Induction of periodic burst of multiple-unit activity volleys in OVX goat assessed as number of ligand-induced multiple-unit activity volleys at 200 nmol, iv; format: functional, Capra hircus

Substance-P receptor, sequence (P25103 whole entry): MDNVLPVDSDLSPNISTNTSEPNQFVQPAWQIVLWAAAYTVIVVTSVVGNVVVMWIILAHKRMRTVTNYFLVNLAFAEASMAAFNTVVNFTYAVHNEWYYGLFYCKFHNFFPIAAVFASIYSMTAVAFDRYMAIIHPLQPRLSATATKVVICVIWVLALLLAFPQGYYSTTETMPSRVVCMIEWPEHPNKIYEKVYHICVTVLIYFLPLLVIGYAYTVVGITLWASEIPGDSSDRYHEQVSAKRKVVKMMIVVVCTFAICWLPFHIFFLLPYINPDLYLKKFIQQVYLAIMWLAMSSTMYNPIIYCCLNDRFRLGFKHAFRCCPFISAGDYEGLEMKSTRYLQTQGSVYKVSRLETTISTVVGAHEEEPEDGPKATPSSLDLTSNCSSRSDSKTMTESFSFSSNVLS
Neprilysin (NEP 24.11), sequence (P08473 whole entry): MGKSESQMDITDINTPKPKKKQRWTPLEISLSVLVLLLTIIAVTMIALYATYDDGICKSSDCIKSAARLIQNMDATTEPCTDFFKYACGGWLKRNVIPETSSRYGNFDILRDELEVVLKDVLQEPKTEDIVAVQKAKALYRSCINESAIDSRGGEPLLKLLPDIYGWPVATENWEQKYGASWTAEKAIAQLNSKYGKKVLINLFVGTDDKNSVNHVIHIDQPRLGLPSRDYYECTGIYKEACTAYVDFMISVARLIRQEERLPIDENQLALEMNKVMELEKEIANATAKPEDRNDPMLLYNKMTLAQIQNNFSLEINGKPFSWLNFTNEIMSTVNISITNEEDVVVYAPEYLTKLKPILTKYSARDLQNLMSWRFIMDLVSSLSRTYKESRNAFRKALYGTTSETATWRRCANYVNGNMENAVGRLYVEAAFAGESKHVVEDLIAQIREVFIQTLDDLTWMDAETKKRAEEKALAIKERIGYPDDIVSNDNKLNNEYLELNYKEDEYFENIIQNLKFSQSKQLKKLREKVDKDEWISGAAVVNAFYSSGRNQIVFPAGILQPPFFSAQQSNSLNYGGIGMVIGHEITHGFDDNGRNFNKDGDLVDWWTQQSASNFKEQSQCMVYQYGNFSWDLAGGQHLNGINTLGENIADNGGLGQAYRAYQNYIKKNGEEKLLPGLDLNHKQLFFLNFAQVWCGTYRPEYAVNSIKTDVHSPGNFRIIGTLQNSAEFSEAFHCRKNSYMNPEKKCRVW

Row | SMILES | IC50 (Neuromedin-K receptor [1]) [nM] | EC50 (Neuromedin-K receptor [2]) [nM] | IC50 (Substance-P receptor) [nM] | IC50 (Substance-K receptor) [nM] | Ratio EC50 [3] | EC50 (Neuromedin-K receptor [4]) [nM] | EC50 [5] [nM] | EC50 [6] [nM] | metabolised at 24 h (Neprilysin (NEP 24.11)) [%] | Ratio IC50 [7] | Stability (Serum [8]) | Stability [9] | Stability (Serum [10]) | Time [11] [min] | Activity [12]
1 | CSCC[C@H](NC(=O)[C@H](CC(C)C)NC(=O)CNC(=O)[C@H](Cc1ccccc1)N(C)C(=O)[C@H](Cc1ccccc1)NC(=O)[C@H](CCC(=O)O)NC(=O)CCC(=O)O)C(N)=O | 6.1 | 0.03 | > 10000 | > 10000 | 2 |  |  |  |  |  |  |  |  |  | 
2 | CSCC[C@H](NC(=O)[C@H](CC(C)C)NC(=O)CNC(=O)[C@H](Cc1ccccc1)N(C)C(=O)[C@H](Cc1ccccc1)NC(=O)[C@H](CCCC(=O)O)NC(=O)C(=O)O)C(N)=O (Oxalyl-[Aad]F[NMeF]GLM-NH2) | 1.4 | 0.0074 | > 10000 | > 10000 |  | 0.0072 | 0.0093 | 0.15 | > 70 |  |  |  |  |  | 
3 | CSCC[C@H](NC(=O)[C@H](CC(C)C)NC(=O)CNC(=O)[C@H](Cc1ccccc1)N(C)C(=O)[C@H](Cc1ccccc1)NC(=O)[C@H](CCC(=O)O)NC(=O)[C@@H](CC(=O)O)NC(C)=O)C(N)=O | 13 | 0.012 | > 10000 | > 10000 | 2 |  |  |  |  | 3 |  |  |  |  | 
4 | CSCC[C@H](NC(=O)[C@H](CC(C)C)NC(=O)CNC(=O)[C@H](Cc1ccccc1)N(C)C(=O)[C@H](Cc1ccccc1)NC(=O)[C@H](CC(=O)O)NC(=O)CCC(=O)O)C(N)=O [SENKTIDE] |  |  |  | > 10000 |  |  | 0.019 | 0.61 |  |  | Stable | Stable | Stable | 47.2 | 2.6
5 | CSCC[C@H](NC(=O)[C@H](CC(C)C)NC(=O)CNC(=O)[C@H](Cc1ccccc1)N(C)C(=O)[C@H](Cc1ccccc1)NC(=O)[C@H](CC(=O)O)NC(=O)C(=O)O)C(N)=O | 3.6 | 0.083 | > 10000 | > 10000 |  |  |  |  |  | 10 |  |  |  |  | 
6 | CSCC[C@H](NC(=O)[C@H](CC(C)C)NC(=O)CNC(=O)[C@H](Cc1ccccc1)N(C)C(=O)[C@H](Cc1ccccc1)NC(=O)[C@H](CCC(=O)O)NC(=O)C(=O)O)C(N)=O | 0.43 | 0.0091 | > 10000 | > 10000 | 7 | 0.013 | 0.012 | 0.169 | > 70 |  | Stable | Stable | Stable |  | 
7 | CSCC[C@H](NC(=O)[C@H](CC(C)C)NC(=O)CNC(=O)[C@H](Cc1ccccc1)N(C)C(=O)[C@H](Cc1ccccc1)NC(=O)[C@@H](CC(=O)O)NC(=O)C(=O)O)C(N)=O | 3.5 | 0.022 | > 10000 | > 10000 |  |  |  |  |  | 10 |  |  |  |  | 
8 | CSCC[C@H](NC(=O)[C@H](CC(C)C)NC(=O)CNC(=O)[C@H](Cc1ccccc1)N(C)C(=O)[C@H](Cc1ccccc1)NC(=O)[C@H](CCCC(=O)O)NC(=O)CCC(=O)O)C(N)=O (Suc-[Aad]F[NMeF]GLM-NH2) | 9.9 | 0.019 | > 10000 | > 10000 | 2 |  |  |  |  |  |  |  |  |  | 
9 | CSCC[C@H](NC(=O)[C@H](CC(C)C)NC(=O)CNC(=O)[C@H](Cc1ccccc1)N(C)C(=O)[C@H](Cc1ccccc1)NC(=O)[C@@H](CCC(=O)O)NC(=O)CCC(=O)O)C(N)=O | 24 | 0.084 | > 10000 | > 10000 |  |  |  |  |  |  |  |  |  |  | 
10 | CSCC[C@H](NC(=O)[C@H](CC(C)C)NC(=O)CNC(=O)[C@H](Cc1ccccc1)N(C)C(=O)[C@H](Cc1ccccc1)NC(=O)[C@@H](CCC(=O)O)NC(=O)C(=O)O)C(N)=O | 0.51 | 0.014 | > 10000 | > 10000 | 7 | 0.0099 | 0.0094 | 0.152 |  |  | Stable | Stable | Stable | 50.4 | 2.7
11 | CSCC[C@H](NC(=O)[C@H](CC(C)C)NC(=O)CNC(=O)[C@H](Cc1ccccc1)N(C)C(=O)[C@H](Cc1ccccc1)NC(=O)[C@H](CCC(=O)O)NC(=O)[C@H](CC(=O)O)NC(C)=O)C(N)=O | 7.7 | 0.0081 | > 10000 | > 10000 | 3 |  |  |  |  | 5 |  |  |  |  | 
12 | CSCC[C@H](NC(=O)[C@H](CC(C)C)NC(=O)CNC(=O)[C@H](Cc1ccccc1)N(C)C(=O)[C@H](Cc1ccccc1)NC(=O)[C@@H](CCC(=O)O)NC(=O)[C@@H](CC(=O)O)NC(C)=O)C(N)=O | 68 | 0.017 | > 10000 | > 10000 |  |  |  |  |  |  |  |  |  |  | 
13 | CC[C@H](C)[C@@H](C(=O)NCC(=O)N[C@@H](CC(C)C)C(=O)N[C@@H](CCSC)C(N)=O)N(C)C(=O)[C@H](Cc1ccccc1)NC(=O)[C@H](CC(=O)O)NC(=O)CCC(=O)O (Suc-DF[NMeI]GLM-NH2) | 91 | 0.05 | > 10000 | > 10000 |  |  |  |  |  |  |  |  |  |  | 
14 | COC(=O)C(=O)N[C@@H](CC(=O)O)C(=O)N[C@@H](Cc1ccccc1)C(=O)N(C)[C@@H](Cc1ccccc1)C(=O)NCC(=O)N[C@@H](CC(C)C)C(=O)N[C@@H](CCSC)C(N)=O (Methoxyoxalyl-DF[NMeF]GLM-NH2) | 4.1 | 0.0029 | > 10000 | > 10000 |  |  |  |  |  |  |  |  |  |  | 
15 | CSCC[C@H](NC(=O)[C@H](CC(C)C)NC(=O)CNC(=O)[C@H](Cc1ccccc1)N(C)C(=O)[C@H](Cc1ccccc1)NC(=O)[C@@H](CCC(=O)O)NC(=O)[C@H](CC(=O)O)NC(C)=O)C(N)=O | 37 | 0.018 | > 10000 | > 10000 |  |  |  |  |  |  |  |  |  |  | 
16 | CSCC[C@H](NC(=O)[C@H](CC(C)C)NC(=O)CNC(=O)[C@H](Cc1ccc(O)cc1)N(C)C(=O)[C@H](Cc1ccccc1)NC(=O)[C@H](CC(=O)O)NC(=O)CCC(=O)O)C(N)=O (Suc-DF[NMeY]GLM-NH2) | 28 | 0.041 | > 10000 | > 10000 |  |  |  |  |  |  |  |  |  |  | 
17 | CSCC[C@H](NC(=O)[C@H](CC(C)C)NC(=O)CNC(=O)[C@H](Cc1ccccc1)N(C)C(=O)[C@H](Cc1ccccc1)NC(=O)[C@H](CC(=O)O)NC(=O)[C@@H](N)CC(=O)O)C(N)=O (H-DDF[NMeF]GLM-NH2) | 175 | 0.063 | > 10000 | > 10000 |  |  |  |  |  |  |  |  |  |  | 
